target: T1, Ba/F3-FL-TYK2-P760L cells (Homo sapiens, UniProt P29597, P760L, cells depend on it); assay: Anti-proliferative assay, Ba/F3-FL-TYK2-P760L cells (Cell-Titer Glo); assay type: cell-based; details: 72 h, read-out: BaF3-FL-T2P760L IC50
T1 construct: BaF3-FL-T2P760L (nM)
Summary of the method: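 Ba/F3 cells made IL-3-independent by TEL-fused or full-length mutant JAK-family kinases, seeded at 2000/well and dosed after 24 h with 9 three-fold dilutions topping at 20 μM. Viability after 72 h at 37 °C, 5% CO2 by Cell-Titer Glo ATP luminescence.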

T1 sequence (P29597 whole entry P760L): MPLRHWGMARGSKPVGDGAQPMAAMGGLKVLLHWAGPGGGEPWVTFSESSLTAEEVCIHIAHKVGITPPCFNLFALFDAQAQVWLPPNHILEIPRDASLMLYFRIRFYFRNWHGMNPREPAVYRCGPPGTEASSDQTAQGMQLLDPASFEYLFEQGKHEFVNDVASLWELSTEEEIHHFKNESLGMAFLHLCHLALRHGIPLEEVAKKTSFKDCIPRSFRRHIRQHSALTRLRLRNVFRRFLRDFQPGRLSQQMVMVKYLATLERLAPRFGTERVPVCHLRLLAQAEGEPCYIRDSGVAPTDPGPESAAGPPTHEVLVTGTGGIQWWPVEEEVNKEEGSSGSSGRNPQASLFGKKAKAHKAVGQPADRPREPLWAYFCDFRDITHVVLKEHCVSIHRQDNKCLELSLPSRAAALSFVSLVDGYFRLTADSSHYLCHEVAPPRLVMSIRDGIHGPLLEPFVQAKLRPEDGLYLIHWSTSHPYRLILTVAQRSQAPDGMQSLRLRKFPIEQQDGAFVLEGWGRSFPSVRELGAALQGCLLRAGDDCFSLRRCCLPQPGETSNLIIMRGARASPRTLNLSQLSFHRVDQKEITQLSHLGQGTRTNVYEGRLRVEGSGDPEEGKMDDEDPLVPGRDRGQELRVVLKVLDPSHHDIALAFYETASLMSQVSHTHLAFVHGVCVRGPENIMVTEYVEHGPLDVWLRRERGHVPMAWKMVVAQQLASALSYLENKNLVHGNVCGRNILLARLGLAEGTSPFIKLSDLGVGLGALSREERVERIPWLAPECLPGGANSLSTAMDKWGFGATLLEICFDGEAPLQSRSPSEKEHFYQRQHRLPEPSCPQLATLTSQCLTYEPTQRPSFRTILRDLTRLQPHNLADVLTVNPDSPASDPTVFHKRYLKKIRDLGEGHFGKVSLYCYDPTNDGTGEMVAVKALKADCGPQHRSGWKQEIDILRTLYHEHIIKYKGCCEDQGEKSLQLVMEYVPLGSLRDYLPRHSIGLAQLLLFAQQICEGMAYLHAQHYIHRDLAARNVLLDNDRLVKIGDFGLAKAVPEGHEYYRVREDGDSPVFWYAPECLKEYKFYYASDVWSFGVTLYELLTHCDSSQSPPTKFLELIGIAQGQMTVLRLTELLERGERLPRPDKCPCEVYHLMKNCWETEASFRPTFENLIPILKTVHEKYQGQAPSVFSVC

Row | Structure (SMILES) | GI50
1 | [2H]C([2H])([2H])NC(=O)c1cnc(NC(=O)C2CC2)cc1Nc1csc2cnn(CC(C)OC)c(=O)c12 (stereo not drawn) [Example 181, 6-(Cyclopropanecarboxamido)-4-((5-(2-methoxypropyl)-4-oxo-4,5-dihydrothieno[2,3-d]pyridazin-3-yl)amino)-N-(methyl-d3)nicotinamide] | 1.9 µM
2 | [2H]C([2H])([2H])NC(=O)c1cnc(NC(=O)C2CC2)cc1Nc1csc2cnn(C(C)COC)c(=O)c12 (stereo not drawn) [Example 182, 6-(Cyclopropanecarboxamido)-4-((5-(1-methoxypropan-2-yl)-4-oxo-4,5-dihydrothieno[2,3-d]pyridazin-3-yl)amino)-N-(methyl-d3)nicotinamide] | 0.491 µM
3 | [2H]C([2H])([2H])NC(=O)c1cnc(NC(=O)C2CC2)cc1Nc1csc2cnn(CCOCC)c(=O)c12 [Example 183, 6-(Cyclopropanecarboxamido)-4-((5-(2-ethoxyethyl)-4-oxo-4,5-dihydrothieno[2,3-d]pyridazin-3-yl)amino)-N-(methyl-d3)nicotinamide] | 0.71 µM
4 | [2H]C([2H])([2H])N1Cc2nc(NC(=O)C3CC3)cc(Nc3ccc4cnn(CC)c4c3OC)c2C1=O [Example 210, N-(4-((1-ethyl-7-methoxy-1H-indazol-6-yl)amino)-6-(methyl-d3)-5-oxo-6,7-dihydro-5H-pyrrolo[3,4-b]pyridin-2-yl)cyclopropanecarboxamide] | > 5 µM
5 | [2H]C([2H])([2H])NC(=O)c1cnc(NC(=O)C2CC2)cc1Nc1ccn2ncc(C([2H])([2H])[2H])c2c1OC [Example 220, 6-(Cyclopropanecarboxamido)-4-((4-methoxy-3-(methyl-d3)pyrazolo[1,5-a]pyridin-5-yl)amino)-N-(methyl-d3)nicotinamide] | 0.541 µM

Compounds with a lower GI50, results first:

Row | GI50 | Structure (SMILES)
6 | 0.309 µM | COC(=O)c1cnc(NC(=O)C2CC2)cc1Nc1csc2c(C#N)cn(C)c(=O)c12 [Example 186, Methyl 4-((7-cyano-5-methyl-4-oxo-4,5-dihydrothieno[3,2-c]pyridin-3-yl)amino)-6-(cyclopropanecarboxamido)nicotinate]
7 | 0.442 µM | [2H]C([2H])([2H])NC(=O)c1cnc(NC(=O)C2CC2)cc1Nc1csc2c(C)nn(CC)c(=O)c12 [Example 187, 6-(Cyclopropanecarboxamido)-4-((5-ethyl-7-methyl-4-oxo-4,5-dihydrothieno[2,3-d]pyridazin-3-yl)amino)-N-(methyl-d3)nicotinamide]
8 | 0.267 µM | CNC(=O)c1cnc(NC(=O)C2CC2)cc1Nc1csc2c(C)cn(C)c(=O)c12 [Example 188, 6-(Cyclopropanecarboxamido)-4-((5,7-dimethyl-4-oxo-4,5-dihydrothieno[3,2-c]pyridin-3-yl)amino)-N-methylnicotinamide]
9 | 0.0457 µM | [2H]C([2H])([2H])NC(=O)c1nnc(NC(=O)C2CC2)cc1Nc1csc2ccn(C)c(=O)c12 [Example 196, 6-(Cyclopropanecarboxamido)-N-(methyl-d3)-4-((5-methyl-4-oxo-4,5-dihydrothieno[3,2-c]pyridin-3-yl)amino)pyridazine-3-carboxamide]
10 | 0.175 µM | [2H]C([2H])([2H])NC(=O)c1cnc(NC(=O)C2CC2)cc1Nc1cn(C([2H])([2H])[2H])c2ccn(C(C)C(F)(F)F)c(=O)c12 (stereo not drawn) [Example 199, 6-(Cyclopropanecarboxamido)-N-(methyl-d3)-4-((1-(methyl-d3)-4-oxo-5-(1,1,1-trifluoropropan-2-yl)-4,5-dihydro-1H-pyrrolo[3,2-c]pyridin-3-yl)amino)nicotinamide]
11 | 0.327 µM | CCN1C(=O)C(F)(F)c2ccc(Nc3cc(NC(=O)C4CC4)ncc3C(=O)NC)c(OC)c21 [Example 204, 6-(Cyclopropanecarboxamido)-4-((1-ethyl-3,3-difluoro-7-methoxy-2-oxoindolin-6-yl)amino)-N-methylnicotinamide]
12 | 0.294 µM | [2H]C([2H])([2H])NC(=O)c1cnc(NC(=O)C2CC2)cc1Nc1cn(CCOC2CC2)c2ccn(CC)c(=O)c12 [Example 221, 6-(Cyclopropanecarboxamido)-4-((1-(2-cyclopropoxyethyl)-5-ethyl-4-oxo-4,5-dihydro-1H-pyrrolo[3,2-c]pyridin-3-yl)amino)-N-(methyl-d3)nicotinamide]

From patent publication US20250115597A1, “TYK2 INHIBITORS AND COMPOSITIONS AND METHODS THEREOF” (LYNK PHARMACEUTICALS CO. LTD., priority 2021, published 2025)
